The nature of series [1]: Pharmacokinetics and total colon distribution after oral administration. The format is in vivo. The following applies: male, C57BL/6, mouse, mice, oral 5 mg/kg, dosed compound measured. The protocol:
Studies were conducted by Sai Life Sciences (Hinjewadi, Pune, India) to investigate the systemic pharmacokinetics and total colon tissue distribution of compounds of the invention. In particular, pharmacokinetic studies were carried out in male C57BL/6 mice following a single oral administration of the compound.

In another series the test system is Jurkat cells. The experiment in a line: (r) Cell cytotoxicity assay. The format is cell-based, human. To be noted: 24 hours. Put shortly: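 Jurkat cells (1×10^5/well, RPMI + 10% FBS) exposed to compound at 20, 5 or 1 μg/mL final (1.0% DMSO control) for 24 h at 37° C., 5% CO2. Then stained with 7.5 μg/mL propidium iodide for 15 min. % viability = PI-negative cells by flow cytometry, normalized to DMSO.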

A further series addresses c-Src (Homo sapiens (Human), UniProt P12931). The experiment in a line: c-Src enzyme inhibition, Z-LYTE FRET. Type of series: biochemical. Put shortly: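 Human Syk and c-Src (enzyme at 2000 or 3000 ng/mL respectively, pre-dilution) preincubated 2 hr at RT with compound at 1, 0.1, 0.01 or 0.001 μg/mL; FRET peptide added with ATP (60 μM Syk, 800 μM c-Src; solution concentrations), 1 hr. Protease development 1 hr; phosphorylation from coumarin/fluorescein emission ratio.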

For another series, the target named is Syk (Homo sapiens (Human), UniProt P43405). The experiment in a line: Syk enzyme inhibition, Z-LYTE FRET. The format is biochemical. Put shortly:
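Syk or c-Src enzyme (3000 or 2000 ng/mL solutions) was preincubated 2 h at RT with compound solutions at 1, 0.1, 0.01 or 0.001 µg/mL. Z-LYTE FRET peptide (8 µM solution) and ATP (800 µM solution for c-Src, 60 µM for Syk) were then added for 1 h, followed by protease development for 1 h. Phosphorylation was read as the coumarin/fluorescein emission ratio.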

For the next series, the target named is p38 MAPKα (MAPK14) (Homo sapiens (Human), UniProt Q16539). The experiment in a line: p38 MAPKα enzyme inhibition (Method 2), Z-LYTE FRET. Type of series: biochemical. In short, it runs like this: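 Enzyme (200 ng/mL solution) was preincubated 2 h at RT with compound solutions of 1, 0.1, 0.01 or 0.001 μg/mL, and inhibition was read indirectly via MAPKAP-K2 activation/phosphorylation. After a 1 h RT reaction and 1 h protease development, phosphorylation was derived from the coumarin/fluorescein emission ratio.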

The subject of a further series is mitosis in PBMCs. The experiment in a line: (g) Cell mitosis assay. The format is cell-based. To be noted: Homo sapiens, PBMC, 5 μg/mL. The procedure:
Peripheral blood mononucleocytes (PBMCs) from healthy subjects are separated from whole blood (Quintiles, London, UK) using a density gradient (Histopaque®-1077, Sigma-Aldrich, Poole, UK). The PBMCs (3 million cells per sample) are subsequently treated with 2% PHA (phytohaemagglutinin, Sigma-Aldrich, Poole, UK) for 48 hr, followed by a 20 hr exposure to varying concentrations of test compounds. At 2 hr before collection, PBMCs are treated with demecolcine (0.1 μg/mL; Invitrogen, Paisley, UK) to arrest cells in metaphase. To observe mitotic cells, PBMCs are permeabilized and fixed by adding Intraprep (50 μL; Beckman Coulter, France), and stained with anti-phospho-histone 3 ([…]; #9701; Cell Signalling, Danvers, Mass.) and propidium iodide (1 mg/mL; Sigma-Aldrich, Poole, UK) as previously described (Muehlbauer P. A. and Schuler M. J., Mutation Research, 2003, 537:117-130). Fluorescence is observed using an ATTUNE flow cytometer (Invitrogen, Paisley, UK), gating for lymphocytes.

[2] abbreviates: blood, read-out: Mean blood concentration.
The mark [3] stands for this setting: total colon, read-out: total colon level.

pIC50: −log10 of the molar value. Like-named read-outs stand apart in the source and are kept apart here.

Chain of c-Src (P12931 whole entry, looked up): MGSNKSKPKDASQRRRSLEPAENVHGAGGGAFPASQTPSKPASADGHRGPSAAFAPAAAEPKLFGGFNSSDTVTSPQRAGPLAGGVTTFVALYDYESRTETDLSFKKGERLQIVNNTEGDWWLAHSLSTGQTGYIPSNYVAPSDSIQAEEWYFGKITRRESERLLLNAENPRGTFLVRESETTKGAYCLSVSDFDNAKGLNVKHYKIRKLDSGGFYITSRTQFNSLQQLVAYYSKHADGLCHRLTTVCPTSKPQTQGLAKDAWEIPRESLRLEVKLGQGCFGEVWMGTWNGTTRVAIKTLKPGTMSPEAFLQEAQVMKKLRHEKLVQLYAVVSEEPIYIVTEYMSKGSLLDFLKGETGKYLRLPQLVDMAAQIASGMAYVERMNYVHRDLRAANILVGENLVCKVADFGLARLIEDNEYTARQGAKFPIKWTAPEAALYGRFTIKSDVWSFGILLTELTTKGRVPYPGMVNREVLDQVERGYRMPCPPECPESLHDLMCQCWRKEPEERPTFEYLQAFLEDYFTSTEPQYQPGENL
Chain of p38 MAPKα (MAPK14) (Q16539 whole entry): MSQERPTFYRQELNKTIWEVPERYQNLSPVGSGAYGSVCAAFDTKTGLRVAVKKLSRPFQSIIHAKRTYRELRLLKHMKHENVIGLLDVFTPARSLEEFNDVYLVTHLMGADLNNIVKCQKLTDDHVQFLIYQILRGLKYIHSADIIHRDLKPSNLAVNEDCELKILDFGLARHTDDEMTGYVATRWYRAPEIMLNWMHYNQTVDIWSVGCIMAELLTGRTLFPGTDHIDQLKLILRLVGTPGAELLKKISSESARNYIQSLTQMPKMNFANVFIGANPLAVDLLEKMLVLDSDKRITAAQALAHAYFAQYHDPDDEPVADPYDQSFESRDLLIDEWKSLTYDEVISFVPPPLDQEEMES

Turning to `COc1cc(Nc2cc(Oc3ccc(NC(=O)Nc4cc(C(C)(C)C)cc(NS(C)(=O)=O)c4OC)c4ccccc34)ccn2)ccc1C(=O)NCCOCCOCCOP(=O)(O)O` [Example 19, 2-(2-(2-(4-((4-((4-(3-(5-(tert-Butyl)-2-methoxy-3-(methylsulfonamido)phenyl)ureido)-naphthalen-1-yl)oxy)pyridin-2-yl)amino)-2-methoxybenzamido)ethoxy)ethoxy)ethyl dihydrogen phosphate], in series [1] (setting [2]), the concentration at 0.5 h is 0 ng/mL, the concentration at 1 h was 0 ng/mL, the concentration at 2 h was 0 ng/mL and the concentration at 4 h amounted to 0 ng/mL. For the same molecule, in series [1] (setting [2]), the concentration at 6 h was found to be 0 ng/mL, the concentration at 8 h worked out at 0 ng/mL, the concentration at 12 h was 0 ng/mL and the concentration at 24 h amounted to 0 ng/mL. In addition, in series [1] (setting [3]), the concentration at 0.5 h is 0 ng/g, the concentration at 1 h is 0 ng/g, the concentration at 2 h was 0 ng/g and the concentration at 4 h came out at 0 ng/g. Further, in series [1] (setting [3]), the concentration at 6 h was found to be 0 ng/g, the concentration at 8 h came to 0 ng/g, the concentration at 12 h is 0 ng/g and the concentration at 24 h was found to be 0 ng/g. Further, in the series with Jurkat cells, the “% Viability at 1 μg/mL” value is on record as 105.0%, the “% Viability at 5 μg/mL” value worked out at 106.0% and the “% Viability at 20 μg/mL” value turned out to be 100.9%.
`COc1cc(Nc2cc(Oc3ccc(NC(=O)Nc4cc(C(C)(C)C)cc(NS(C)(=O)=O)c4OC)c4ccccc34)ccn2)ccc1C(=O)NCCOCCOCCO` [Example 16, 4-[[4-[[4-[[5-tert-Butyl-3-(methanesulfonamido)-2-methoxy-phenyl]carbamoylamino]-1-naphthyl]oxy]-2-pyridyl]amino]-N-[2-[2-(2-hydroxyethoxy)ethoxy]ethyl]-2-methoxy-benzamide] had a pIC50 against c-Src of 7.66. The molecule further had a pIC50 against Syk of 6.97. This molecule also gave a pIC50 against p38 MAPKα (MAPK14) of 7.47. Also, in the series with Jurkat cells, the “% Viability at 1 μg/mL” value amounted to 90.1%, the “% Viability at 5 μg/mL” value came out at 52.5% and the “% Viability at 20 μg/mL” value is given as 19.1%. In the series with mitosis in PBMCs, the inhibition at 5 µg/mL turned out to be 50.1%.
On to `COc1cc(Nc2cc(Oc3ccc(NC(=O)Nc4cc(C(C)(C)C)cc(NS(C)(=O)=O)c4OC)c4ccccc34)ccn2)ccc1C(=O)NCCN1CCSCC1` [17(l), 4-[[4-[[4-[[5-tert-butyl-3-(methanesulfonamido)-2-methoxy-phenyl]carbamoylamino]-1-naphthyl]oxy]-2-pyridyl]amino]-2-methoxy-N-(2-thiomorpholinoethyl)benzamide], for which the results for the pIC50 against c-Src, against Syk and against p38 MAPKα (MAPK14) were 6.94, 6.41 and 6.65, respectively. In addition, the “% Viability at 1 μg/mL” value in the series on Jurkat cells came out at 102.8%. In addition, in the series with Jurkat cells, the “% Viability at 5 μg/mL” value was found to be 102.7%. The “% Viability at 20 μg/mL” value in the series on Jurkat cells was 102.9%. In addition, the inhibition at 5 µg/mL with mitosis in PBMCs was found to be 24.9%.
`COCCOCCOCCS(=O)(=O)c1ccc(Nc2cc(Oc3ccc(NC(=O)Nc4cc(C(C)(C)C)cc(NS(C)(=O)=O)c4OC)c4ccccc34)ccn2)cc1OC` [Example 12, 1-[5-tert-Butyl-3-(methanesulfonamido)-2-methoxy-phenyl]-3-[4-[[2-[3-methoxy-4-[2-[2-(2-methoxyethoxy)ethoxy]ethylsulfonyl]anilino]-4-pyridyl]oxy]-1-naphthyl]urea] showed a pIC50 against c-Src of 6.68. The pIC50 against Syk is 6.08. At p38 MAPKα (MAPK14), this molecule gave a pIC50 of 7.64. Besides, in the series with Jurkat cells, the “% Viability at 1 μg/mL” value came to 74.5%, the “% Viability at 5 μg/mL” value stood at 81.8% and the “% Viability at 20 μg/mL” value is recorded as 82.9%. This molecule showed an inhibition at 5 µg/mL in the series with mitosis in PBMCs of 22.1%.
Turning to `COc1cc(Nc2cc(Oc3ccc(NC(=O)Nc4cc(C(C)(C)C)cc(NS(C)(=O)=O)c4OC)c4ccccc34)ccn2)ccc1C(=O)NCCCN1CCOCC1` [17(b), 4-[[4-[[4-[[5-tert-butyl-3-(methanesulfonamido)-2-methoxy-phenyl]carbamoylamino]-1-naphthyl]oxy]-2-pyridyl]amino]-2-methoxy-N-(3-morpholinopropyl)benzamide], the negative logarithm of the IC50 (pIC50) against c-Src is 7.70; at Syk, 7.01; at p38 MAPKα (MAPK14), 7.28. The “% Viability at 1 μg/mL” value in the series on Jurkat cells was determined as 102.8%. The “% Viability at 5 μg/mL” value in the series with Jurkat cells was 93.8%. For the same molecule, in the series with Jurkat cells, the “% Viability at 20 μg/mL” value was determined as 79.3%. 5 µg/mL produced 58.9% inhibition with mitosis in PBMCs.
Turning to `COc1cc(Nc2cc(Oc3ccc(NC(=O)Nc4cc(C(C)(C)C)cc(NS(C)(=O)=O)c4OC)c4ccccc34)ccn2)ccc1C(=O)NCCC1CCN(C)CC1` [Example 14, 4-[[4-[[4-[[5-tert-Butyl-3-(methanesulfonamido)-2-methoxy-phenyl]carbamoylamino]-1-naphthyl]oxy]-2-pyridyl]amino]-2-methoxy-N-[2-(1-methyl-4-piperidyl)ethyl]benzamide], at c-Src, the pIC50 was 7.72. The pIC50 at Syk was 7.04. The pIC50 on p38 MAPKα (MAPK14) is 8.00. Besides, in the series on Jurkat cells, the “% Viability at 1 μg/mL” value is recorded as 101.9%, the “% Viability at 5 μg/mL” value is reported as 98.8% and the “% Viability at 20 μg/mL” value came to 0.7%. In the series with mitosis in PBMCs, this molecule displayed an inhibition at 5 µg/mL of 60.1%.

Broadly, the pIC50 is −log10 of the IC50, conventionally taken in molar units. A high value points to a small IC50. Broadly, the inhibition is the share of the control response that was lost under treatment. A higher inhibition goes with a strong effect.

Source of the values: patent publication US10125100B2, “Kinase inhibitors” (Respivert Limited, priority 2014, dated 2018).
